Measurements: patent US8604053B2, “TRPV1 antagonists” (AbbVie Inc., priority 2008, dated 2013)

Legend:
CYP2D6 = biological target: T1, CYP2D6 (Homo sapiens, UniProt P10635); experiment: in vitro; type: in vitro ADME; conditions: microsomes; for inhibition at 25 min, 2.2 µM: human, pH 7.4
T1 construct: human liver microsomes (BD Gentest); tissue BD Gentest; host or cells: human liver microsomes
Method: Stock solutions of test compounds were assayed in 96-well format for their ability to inhibit CYP2C9, CYP2D6, or CYP3A4 mediated metabolism of test substrates. Luciferin-H was used as the substrate for CYP2C9; 3-[2-(N,N-diethyl-N-methylammonium)ethyl]-7-methoxy-4-methylcoumarin (AMMC) was used as the substrate for CYP2D6; 7-benzyloxyquiniline (BZQ) was used as the substrate for CYP3A4. For each subtype, positive controls (sulphaphenazole in the case of CYP2C9; quinidine in the case of CYP2D6, ketoconazole in the case of CYP3A4) were used to validate assay results run in duplicate.
Pre-Incubation Mixture Preparation for CYP2C9 and CYP2D6: A pre-incubation mixture was prepared by combining 100 mM phosphate buffer (9.12 mL; pH 7.4), human liver microsomes (BD Gentest, 240 itt; final concentration: 0.4 mg/mL), and 10 mM nicotinamide adenine dinucleotide phosphate in 65.4 mM MgCl2 hexahydrate (120 μL; final concentration: 125 μM and 818 μM, respectively). To this was mixture is added a ‘regeneration’ mixture (120 μL) of 333 mM glucose-6-phosphate and 40 U/mL glucose-6-phosphate dehydrogenase in 5 mM sodium citrate (final concentration: 4 mM, 0.5 U/mL, and 0.06 mM, respectively).
Substrate Mixture Preparation for CYP2D6: To a solution of 100 mM phosphate buffer, (2.80 mL, pH 7.4) was added 10 mM AMMC in acetonitrile (14 itt; final solution concentration 0.05 mM, final assay concentration 10 μM).
CYP2D6 Inhibiton Assay: To each well in the assay plate containing varying concentrations of test compound or control compound in DMSO (10 μL), Pre-Incubation Mixture (40 μL) was added to the wells and the assay plate was pre-incubated for 10 minutes at 37° C., with shaking or rocking. A pre-read of each well was performed at 390 nm and 460 nm extinction/emission. CYP2D6 Substrate Mixture (10 μL) was added to all wells and the assay plate was incubated for an additional […] at 37° C., with shaking or rocking. Final DMSO concentration was 1%. A post-read of each well was then performed at 390 nm and 460 nm extinction/emission.

[1] = Assessment of hemodynamic profile in anesthetized rat; type: in vivo; conditions: i.v. infusion 3, 10 and 30 mg/kg/30 minutes/dose, relative to vehicle control group
Method: Male Sprague-Dawley rats were anesthetized with Inactin, instrumented, and allowed to stabilize. Following a 30 minute baseline period, test compound was infused via intravenous administration at 3, 10, and 30 mg/kg/30 minutes/dose in a low volume PEG-400 vehicle (1 mL/kg) or 20:40:40 dimethylacetamide:propylene glycol:PEG-400 vehicle (1 mL/kg). A separate group of animals received infusion of vehicle alone. Mean arterial pressure (MAP) and heart rate (HR) were observed and recorded.

[2] = Rat telemetry protocol, core body temperature; type: in vivo; conditions: core body temperature of rats one hour post dosing, 100 μmol/kg p.o., relative to vehicle
Method in brief: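 Male Sprague Dawley rats (225–250 g) with intraperitoneal telemetry transmitters, 2-week recovery. Single oral 100 μmol/kg dose in 10% EtOH/20% Tween-80/70% PEG-400; core body temperature recorded every 15 min over 24 h.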

CYP2C9 = biological target: T2, CYP2C9 (Homo sapiens, UniProt P11712); experiment: CYP2C9 inhibition assay; type: in vitro ADME; conditions: human liver microsomes, substrate Luciferin-H; for inhibition at 25 min, 2.2 µM: pH 7.4, probe Luciferin-H (100 μM final), read-out: CYP2C9 % inh @ 2.2 μM
T2 construct: human liver microsomes (BD Gentest); tissue BD Gentest; host or cells: human liver microsomes
Method in brief: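 Human liver microsomes (0.4 mg/mL) with NADPH-regenerating system in pH 7.4 phosphate, preincubated with compound 10 min at 37 °C. Luciferin-H (100 μM final) then added for 25 min at 37 °C, 1% DMSO. Luminescence read after Luciferin-H detection reagent; run in duplicate.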

T2 sequence (P11712 whole entry): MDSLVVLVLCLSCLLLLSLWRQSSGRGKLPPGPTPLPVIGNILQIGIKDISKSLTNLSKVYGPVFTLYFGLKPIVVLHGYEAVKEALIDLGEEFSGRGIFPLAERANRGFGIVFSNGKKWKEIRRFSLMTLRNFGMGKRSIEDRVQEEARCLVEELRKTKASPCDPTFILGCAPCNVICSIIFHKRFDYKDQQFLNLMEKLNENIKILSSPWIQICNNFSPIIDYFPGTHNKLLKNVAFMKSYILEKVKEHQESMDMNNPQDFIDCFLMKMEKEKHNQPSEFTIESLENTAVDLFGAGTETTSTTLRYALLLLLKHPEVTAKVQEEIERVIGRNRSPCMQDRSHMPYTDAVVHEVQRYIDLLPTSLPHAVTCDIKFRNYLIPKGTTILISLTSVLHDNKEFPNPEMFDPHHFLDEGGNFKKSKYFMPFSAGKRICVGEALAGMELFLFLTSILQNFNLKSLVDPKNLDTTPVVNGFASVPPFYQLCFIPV
T1 sequence (P10635 whole entry): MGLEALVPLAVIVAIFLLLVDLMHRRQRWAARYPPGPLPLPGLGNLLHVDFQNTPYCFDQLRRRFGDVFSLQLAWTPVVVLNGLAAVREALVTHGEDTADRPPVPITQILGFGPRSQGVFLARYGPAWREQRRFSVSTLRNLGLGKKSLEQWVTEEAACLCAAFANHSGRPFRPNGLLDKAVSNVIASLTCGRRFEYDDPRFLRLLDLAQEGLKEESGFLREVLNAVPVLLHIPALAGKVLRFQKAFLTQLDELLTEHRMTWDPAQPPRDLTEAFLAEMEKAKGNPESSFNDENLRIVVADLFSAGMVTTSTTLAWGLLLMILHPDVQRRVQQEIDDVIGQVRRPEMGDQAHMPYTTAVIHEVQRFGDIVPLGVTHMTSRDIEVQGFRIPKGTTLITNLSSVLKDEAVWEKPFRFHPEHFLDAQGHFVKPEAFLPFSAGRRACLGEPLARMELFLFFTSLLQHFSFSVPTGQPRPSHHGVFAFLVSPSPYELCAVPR

Row | Compound | inhibition at 25 min, 2.2 µM (CYP2D6) [%] | Change in MAP or HR ≧ 15% ? [1] | Δ Temp (° C.) [2] [°C] | inhibition at 25 min, 2.2 µM (CYP2C9) [%] | CYP2D6 % inh @ 2.2 μM) (CYP2D6; 2.2 µM) [%] | CYP2C9 % inh @ 2.2 μM (CYP2C9) [%]
1 | Cc1cc2c(NC(=O)N[C@@H]3CC(CF)(CF)Oc4c(F)cccc43)cccc2cn1 [Example 85, N-[(4R)-8-fluoro-2,2-bis(fluoromethyl)-3,4-dihydro-2H-chromen-4-yl]-N′-(3-methylisoquinolin-5-yl)urea] | 10 | No (an observed increase or decrease of less than or equal to 15% in MAP (mean arterial pressure) or HR (heart rate) in the test group of animals relative to the vehicle control group is indicated as “No” in the table) | 0.2 | 7.2 | – | –
2 | Cc1cc2c(NC(=O)N[C@@H]3CCOc4c(OC(F)(F)F)cccc43)cccc2cn1 [Example 66, N-(3-methylisoquinolin-5-yl)-N′-[(4R)-8-(trifluoromethoxy)-3,4-dihydro-2H-chromen-4-yl]urea] | 9.5 | No (an observed increase or decrease of less than or equal to 15% in MAP (mean arterial pressure) or HR (heart rate) in the test group of animals relative to the vehicle control group is indicated as “No” in the table) | −0.9 | 4.5 | – | –
3 | Cc1cc2c(NC(=O)N[C@@H]3CC(C)(C)Oc4c3ccc(F)c4F)cccc2cn1 [Example 113, N-[(4R)-7,8-difluoro-2,2-dimethyl-3,4-dihydro-2H-chromen-4-yl]-N′-(3-methylisoquinolin-5-yl)urea] | 0 | Yes (An observed increase or decrease of greater than 15% in MAP (mean arterial pressure) or HR (heart rate) in one or more of the animals in the test group relative to the vehicle control group is indicated as “Yes” in the table) | 0.0 | 7.6 | – | –
4 | Cc1cc2c(NC(=O)N[C@@H]3CC(CF)(CF)Oc4ccc(F)cc43)cccc2cn1 [Example 65, N-[(4R)-6-fluoro-2,2-bis(fluoromethyl)-3,4-dihydro-2H-chromen-4-yl]-N′-(3-methylisoquinolin-5-yl)urea] | 12 | No (an observed increase or decrease of less than or equal to 15% in MAP (mean arterial pressure) or HR (heart rate) in the test group of animals relative to the vehicle control group is indicated as “No” in the table) | 0.0 | 0 | – | –
5 | Cc1cc2c(NC(=O)N[C@@H]3CC(C)(C)Oc4cc(F)ccc43)cccc2cn1 [Example 95, N-[(4R)-7-fluoro-2,2-dimethyl-3,4-dihydro-2H-chromen-4-yl]-N′-(3-methylisoquinolin-5-yl)urea] | 3.5 | Yes (An observed increase or decrease of greater than 15% in MAP (mean arterial pressure) or HR (heart rate) in one or more of the animals in the test group relative to the vehicle control group is indicated as “Yes” in the table) | 0.0 | 0 | – | –
6 | N-[(4R)-2,2-diethyl-8-fluoro-3,4-dihydro-2H-chromen-4-yl]-N-(3-methylisoquinolin-5-yl)urea [Example 62] | – | No (an observed increase or decrease of less than or equal to 15% in MAP (mean arterial pressure) or HR (heart rate) in the test group of animals relative to the vehicle control group is indicated as “No” in the table) | −0.5 | – | 9.1 | 22
7 | Cc1cc2c(NC(=O)N[C@@H]3CC(C)(C)Oc4c3ccc(F)c4Cl)cccc2cn1 [Example 110, N-[(4R)-8-chloro-7-fluoro-2,2-dimethyl-3,4-dihydro-2H-chromen-4-yl]-N′-(3-methylisoquinolin-5-yl)urea] | 1.4 | Yes (An observed increase or decrease of greater than 15% in MAP (mean arterial pressure) or HR (heart rate) in one or more of the animals in the test group relative to the vehicle control group is indicated as “Yes” in the table) | −1.1 | 13 | – | –
